In patent publication US8653276B2 (SANOFI, priority 2008, dated 2014) one finds melting point data, which are given here for seven compounds.

Counter-ions that a name gives are not always drawn.

For orientation: melting point means the temperature of the solid-liquid transition. Take `COC(=O)C1(NC(=O)c2cnc(-c3ccc(C)cc3C)c(-c3ccc(Cl)c(OCCCN(C)C)c3)n2)CCCCC1` (as salt: hydrochloride) [Compound 20, methyl 1-({[6-{4-chloro-3-[3-(dimethylamino)propoxy]phenyl}-5-(2,4-dimethylphenyl)pyrazin-2-yl]carbonyl}amino)cyclohexanecarboxylate]: the melting point was determined as 118 °C.

For `CCOC(=O)C[C@H](NC(=O)c1ccc(-c2ccccc2C)c(-c2ccc(Cl)c(OCCCN(C)C)c2)n1)C(C)(C)C` (as salt: hydrochloride) [Compound 29, ethyl(3S)-3-({[6-{4-chloro-3-[3-(dimethylamino)propoxy]phenyl}-5-(2-methylphenyl)pyridin-2-yl]carbonyl}amino)-4,4-dimethylpentanoate], the melting point is 90 °C.

Take `COC(=O)C1(NC(=O)c2ccc(-c3ccccc3C)c(-c3ccc(Cl)c(OCCCN(C)C)c3)n2)CCCCC1` (as salt: hydrochloride) [Compound 4, methyl 1-({[6-{4-chloro-3-[3-(dimethylamino)propoxy]phenyl}-5-(2-methylphenyl)pyridin-2-yl]carbonyl}amino)cyclohexanecarboxylate]: the melting point turned out to be 115 °C.

In the case of `COC(=O)C1(NC(=O)c2ccc(-c3ncc(Cl)cc3Cl)c(-c3ccc(Cl)c(OCCCN(C)C)c3)n2)CCCCC1` (as salt: hydrochloride) [Compound 1, methyl 1-{[(3,5-dichloro-2′-{4-chloro-3-[3-(dimethylamino)propoxy]phenyl}-2,3′-bipyridin-6′-yl)carbonyl]amino}cyclohexanecarboxylate], the melting point stood at 168 °C.

On to `COC(=O)C1(NC(=O)c2ccc(-c3cc(C4CC4)ccc3C)c(-c3ccc(Cl)c(OCCCN(C)C)c3)n2)CCCCC1` (as salt: hydrochloride) [Compound 7, methyl 1-({[6-{4-chloro-3-[3-(dimethylamino)propoxy]phenyl}-5-(5-cyclopropyl-2-methylphenyl)pyridin-2-yl]carbonyl}amino)cyclohexanecarboxylate], for which the melting point worked out at 114 °C.

`CCCOc1ccc(Cl)c(-c2ccc(C(=O)NC3(C(=O)OC)CCCCC3)nc2-c2ccc(Cl)c(OCCCN(C)C)c2)c1` (as salt: hydrochloride) [Compound 9, methyl 1-({[6-{4-chloro-3-[3-(dimethylamino)propoxy]phenyl}-5-(2-chloro-5-propoxyphenyl)pyridin-2-yl]carbonyl}amino)cyclohexanecarboxylate] showed a melting point of 117 °C.

`COC(=O)C1(NC(=O)c2ccc(-c3cc4c(cc3C)OCO4)c(-c3ccc(Cl)c(OCCCN(C)C)c3)n2)CCCCC1` (as salt: hydrochloride) [Compound 11, methyl 1-({[6-{4-chloro-3-[3-(dimethylamino)propoxy]phenyl}-5-(6-methyl-1,3-benzodioxol-5-yl)pyridin-2-yl]carbonyl}amino)cyclohexanecarboxylate] displayed a melting point of 138 °C.
